Where a name gives a salt, the structure may show the parent alone.
How the values were obtained:
Format in all cases: physicochemical
[1] = Water vapor sorption (DVS) at 25° C.
Procedure: Water vapor sorption experiments were performed using a Surface Measurement System DVS Advantage at 25° C. The Bis-HCl salt of Compound A reversibly absorbed approximately 7% weight per weight of water between 0% and 90% relative humidity at 25° C. […] Upon desorption the conversions were reversible. The Form 1 crystalline mesylate salt of Compound A reversibly absorbed approximately 1.6% weight per weight of water between 0% and 90% relative humidity at 25° C.

[2] = Thermal behaviour during heating (DSC)
Procedure: Differential Scanning calorimetry (DSC) data were acquired on a TA Instruments Q20 DSC. The method parameters were: Heat Program: 30° C. to 300° C. using a 10° C. per minute heating rate, under a nitrogen gas flow.

[3] = Solubility in simulated intestinal fluids at controlled ambient room temperature; conditions: for Solubility in FaSSIF and FeSSIF (in words): mesylate compared to the bis-HCl salt
[4] = Fasted State Simulated Intestinal Fluid (FaSSif) pH 6.5, controlled ambient room temperature
[5] = Fed State Simulated Intestinal Fluid (FeSSif) pH 6.5, controlled ambient room temperature

SMILES	Solid form change upon moisture sorption ([1]; ambient humidity conditions)	Water reversibly absorbed ([1]; between 0% and 90% relative humidity at 25° C.)	Hygroscopicity (in words) ([1]; compared to the bis-HCl salt, ambient humidity conditions)	Thermal loss of counter-ion during heating [2]	Solubility in FaSSIF and FeSSIF (in words) ([3]; listed as Form 1 of the mesylate salt of Compound A)	Solubility of Specified Version [3, 4]	Solubility of Specified Version [3, 5]	Solubility in FaSSIF and FeSSIF (in words) ([3]; listed as parent free base of Compound A)
C=C(C)[C@@H]1CC[C@]2(NCCN3CCS(=O)(=O)CC3)CC[C@]3(C)[C@H](CC[C@@H]4[C@@]5(C)CC=C(C6=CC[C@@](CF)(C(=O)O)CC6)C(C)(C)[C@@H]5CC[C@]43C)[C@@H]12 [Form 1 of Mesylate salt of Compound A]	no significant form change	approximately 1.6 % weight per weight	lower hygroscopicity	does not show this behavior	greater solubility	0.1 mg/mL	0.6 mg/mL	
C=C(C)[C@@H]1CC[C@]2(NCCN3CCS(=O)(=O)CC3)CC[C@]3(C)[C@H](CC[C@@H]4[C@@]5(C)CC=C(C6=CC[C@@](CF)(C(=O)O)CC6)C(C)(C)[C@@H]5CC[C@]43C)[C@@H]12 [Parent Compound A, (1R)-4-[(1R,3aS,5aR,5bR,7aR,11aS,11bR,13aR,13bR)-3a-{[2-(1,1-dioxido-4-thiomorpholinyl)ethyl]amino}-5a,5b,8,8,11a-pentamethyl-1-(1-propen-2-yl)-2,3,3a,4,5,5a,5b,6,7,7a,8,11,11a,11b,12,13,13a,13b-octadecahydro-1H-cyclopenta[a]chrysen-9-yl]-1-(fluoromethyl)-3-cyclohexene-1-carboxylic acid]						Less than 0.001 mg/mL	Less than 0.001 mg/mL	poor solubility
